Laboratory results reported in article PMC9225722, “Synthesis and biological evaluation of thieno[3,2-c]pyrazol-3-amine derivatives as potent glycogen synthase kinase 3β inhibitors for Alzheimer’s disease” (Journal of Enzyme Inhibition and Medicinal Chemistry, 2022).
“Also recorded” adds a separate entry of the source.

Key:
GSK-3β = GSK-3β (Homo sapiens, UniProt P49841); experiment: GSK-3β kinase assay (calliper mobility shift assay); type: biochemical; conditions: mean ± SD from two separate experiments; calliper mobility shift assay
Sequence of GSK-3β (P49841 whole entry): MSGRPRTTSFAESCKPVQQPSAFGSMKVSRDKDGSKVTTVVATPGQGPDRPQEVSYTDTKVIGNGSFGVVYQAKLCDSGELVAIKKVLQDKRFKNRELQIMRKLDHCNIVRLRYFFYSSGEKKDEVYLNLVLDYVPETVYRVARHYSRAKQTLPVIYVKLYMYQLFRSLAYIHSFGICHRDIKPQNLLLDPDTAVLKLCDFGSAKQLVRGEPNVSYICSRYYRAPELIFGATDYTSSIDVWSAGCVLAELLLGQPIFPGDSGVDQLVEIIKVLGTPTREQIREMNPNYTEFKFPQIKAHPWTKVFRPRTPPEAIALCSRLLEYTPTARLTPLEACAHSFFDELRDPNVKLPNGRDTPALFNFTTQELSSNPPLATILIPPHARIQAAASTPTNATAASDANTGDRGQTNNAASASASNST

CDK5/p35 = target: T1, CDK5/p35 (Homo sapiens, UniProt Q00535); experiment: Kinase selectivity screen (enzymatic radioactive assay, Eurofins Cerep); type: biochemical; conditions: 1.0 μM compound, Km ATP
T1 construct: purchased Eurofins Cerep SA (contract assay service)
T1 sequence (Q00535 whole entry): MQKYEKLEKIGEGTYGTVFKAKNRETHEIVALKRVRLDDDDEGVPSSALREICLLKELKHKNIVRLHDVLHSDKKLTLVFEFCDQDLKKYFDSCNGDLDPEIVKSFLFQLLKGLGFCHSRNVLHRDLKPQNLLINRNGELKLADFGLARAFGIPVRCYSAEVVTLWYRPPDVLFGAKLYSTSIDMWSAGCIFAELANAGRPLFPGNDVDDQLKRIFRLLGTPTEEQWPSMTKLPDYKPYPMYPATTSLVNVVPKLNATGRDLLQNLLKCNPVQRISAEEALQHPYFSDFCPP
T1 sequence (Q15078 whole entry partner): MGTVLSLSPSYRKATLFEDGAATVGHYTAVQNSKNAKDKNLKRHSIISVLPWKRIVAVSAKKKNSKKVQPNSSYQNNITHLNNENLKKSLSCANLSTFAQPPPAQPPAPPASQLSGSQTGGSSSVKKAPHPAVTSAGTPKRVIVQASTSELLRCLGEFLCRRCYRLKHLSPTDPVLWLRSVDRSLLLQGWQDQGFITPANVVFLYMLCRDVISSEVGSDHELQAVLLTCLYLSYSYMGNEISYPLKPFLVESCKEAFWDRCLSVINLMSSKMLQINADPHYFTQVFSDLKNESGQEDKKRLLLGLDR
From the text: (§1) The potent GSK-3β inhibitor 16b was next subjected to kinase selectivity assay. A panel of kinases which were structurally related to GSK-3β was used for the GSK-3β selectivity studies[26]^,[37]^,[38]. […] GSK-3α and GSK-3β are known to share a 98% sequence homology at the catalytic site[42]. CDK5 and GSK-3 belong to the CMGC protein kinase family, which shared highly homology with each other[43]^,[44]. CDK5 is known abnormally activated and also responsible for the tau hyperphosphorylation in AD[45]. It was known that Aβ could increase CK2 activity, which in turn accelerated the tau phosphorylation in AD[46]. Therefore, the inhibition of CDK5 and CK2 by 16b may be beneficial for its anti-AD activities.
(§2) Figure 3. Effects of compound 16b on the activities of 21 protein kinases in vitro. Protein kinases were of human origin and assayed in the presence of 1.0 μM compound 16b or vehicle (DMSO). The enzymatic activity was measured in the presence of Km ATP. Kinase activities were given as the mean of twice determinations. AMPKα1, AMP-activated protein kinase 1; AMPKα2, AMP-activated protein kinase 2; CDK4/cyclinD3, cyclin-dependent protein kinase-4/cyclinD3; CDK5/p35, cyclin-dependent protein kinase-5/p35; CHK1, checkpoint kinase-1; CK2, casein kinase-2; Lck, lymphocyte kinase; MSK1, mitogen- and stress-activated protein kinase-1; p70S6K, p70 ribosomal protein S6 kinase; PDK1, 3-phosphoinositide-dependent protein kinase-1; PKA, cAMP-dependent protein kinase; PKBα, protein kinase Bα; PKCα, protein kinase Cα; PRAK, p38-regulated/activated kinase; SAPK2a, stress-activated protein kinase-2a; SAPK2b, stress-activated protein kinase-2b; SAPK3, stress-activated protein kinase-3; SAPK4, stress-activated protein kinase-4; SGK, serum- and glucocorticoid-induced protein kinase.
(§3) Compound 16b was evaluated for kinase selectivity at Eurofins Cerep SA (Celle-L’Evescault, France) in enzymatic radioactive assays in a panel of 21 different kinases (including GSK-3β) from diverse families. […] The enzymatic activity was measured in the presence of Km ATP.

CK2 = target: T2, CK2 (Homo sapiens, UniProt P68400); experiment: as above; type: biochemical; conditions: 1.0 μM compound, Km ATP
T2 construct: purchased Eurofins Cerep SA (contract assay service)
T2 sequence (P68400 whole entry): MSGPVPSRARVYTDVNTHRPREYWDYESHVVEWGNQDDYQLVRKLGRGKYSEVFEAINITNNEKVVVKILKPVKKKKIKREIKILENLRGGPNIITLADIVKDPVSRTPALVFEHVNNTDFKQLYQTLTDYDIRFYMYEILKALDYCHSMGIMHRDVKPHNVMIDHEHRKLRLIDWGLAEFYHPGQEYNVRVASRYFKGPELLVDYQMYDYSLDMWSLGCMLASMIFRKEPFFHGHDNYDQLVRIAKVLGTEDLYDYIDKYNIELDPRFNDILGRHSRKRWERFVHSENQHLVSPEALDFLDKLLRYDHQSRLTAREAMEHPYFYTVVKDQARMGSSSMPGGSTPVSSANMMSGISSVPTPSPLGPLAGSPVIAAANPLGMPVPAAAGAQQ
From the text: as §1, §2, §3

GSK-3α = target: T3, GSK-3α (Homo sapiens, UniProt P49840); experiment: as above; type: biochemical; conditions: 1.0 μM compound, Km ATP
T3 construct: purchased Eurofins Cerep SA (contract assay service)
T3 sequence (P49840 whole entry): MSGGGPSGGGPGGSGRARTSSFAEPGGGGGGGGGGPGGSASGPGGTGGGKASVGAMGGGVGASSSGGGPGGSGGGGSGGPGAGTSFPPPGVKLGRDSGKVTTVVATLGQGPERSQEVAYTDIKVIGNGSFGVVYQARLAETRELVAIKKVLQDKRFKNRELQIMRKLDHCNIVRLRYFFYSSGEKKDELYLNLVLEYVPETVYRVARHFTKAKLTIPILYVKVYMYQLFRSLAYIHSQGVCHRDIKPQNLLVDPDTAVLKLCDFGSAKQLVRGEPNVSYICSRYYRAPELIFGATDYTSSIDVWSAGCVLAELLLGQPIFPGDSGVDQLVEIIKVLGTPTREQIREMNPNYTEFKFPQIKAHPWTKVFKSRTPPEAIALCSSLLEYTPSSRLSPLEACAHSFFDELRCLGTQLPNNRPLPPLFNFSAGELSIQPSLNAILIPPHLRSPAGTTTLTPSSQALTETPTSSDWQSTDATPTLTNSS
From the text: as §1, §2, §3

[1] = system: panel of 21 diverse kinases; experiment: Kinase selectivity screen, whole panel; type: biochemical, human; conditions: 1.0 μM compound, Km ATP, 21 kinases
From the text: as §1
Figure 3. Effects of compound 16b on the activities of 21 protein kinases in vitro. Protein kinases were of human origin and assayed in the presence of 1.0 μM compound 16b or vehicle (DMSO). The enzymatic activity was measured in the presence of Km ATP. Kinase activities were given as the mean of twice determinations. […]
as §3

β-catenin = experiment: Western blot of β-catenin abundance in SH-SY5Y cells; type: cell-based, human; conditions: 2.5 h, control 0.41
From the text: Figure 6. (A) The effect of 16b on phosphorylation of GSK-3β at Ser9; (B) the effect of 16b on β-catenin abundance. Protein expressions were detected by immunoblot analysis with a specific antibody. Values are reported as the mean ± SD of three independent experiments. *p < 0.05, **p < 0.01, ***p < 0.001 vs control.
GSK-3β is implicated in the Wnt/β-catenin signalling pathway, which plays an important role in neuronal development. GSK-3β, together with adenomatous polyposis coli (APC), Axin, and casein kinase 1 (CK1), form a ploy-protein complex that regulates the hyperphosphorylation of β-catenin. Phospho-β-catenin is recognised by ubiquitin and degraded by proteasomes. Pharmacological inhibition of GSK-3β leads to the activation and stabilisation of β-catenin, subsequently resulting in the accumulation of β-catenin in cytoplasm. The activation of Wnt/β-catenin signalling pathway can promote synaptic growth, alleviate spatial memory impairment and neurodegeneration in Alzheimer’s models. Moreover, β-catenin also plays a pivotal role in cell adhesion complexes. The combination of β-catenin and N-cadherin elevates cell-to-cell interactions which is prerequisite for neuronal differentiation[61]^,[62]. Therefore, we further evaluated the effect of 16b on β-catenin. In agreement with its GSK-3β inhibitory activity on SH-SY5Y cells, 16b increased β-catenin abundance in a dose-dependent manner. […]
SH-SY5Y cells (1 × 10^6) were seeded in 12-well plates (Corning, Los Altos, MA, USA) and incubated with compound 16b or LiCl at the indicated concentrations for 2.5 h at 37 °C in 5% CO2. […] The protein quantification was determined using a BCA protein assay kit (Jiangsu KeyGEN BioTECH Co., Ltd., Nanjing, China). […] The blots were washed by TBST for 20 min and detected with ECL chemiluminescent reagent (Jiangsu KeyGEN BioTECH Co., Ltd., Nanjing, China) for 3 min. Pixel intensity was quantitated using gel imaging system (SYNGENE G:BOX/iChemi XR5, ISS, San Diego, CA, US) and Gel-Pro32 software (Media Cybernetics, Bethesda, MD, USA). […]

IC50 (GSK-3β): 3.1 ± 0.1 nM | selectivity over CDK5 (CDK5/p35): low selectivity | selectivity over CK2 (CK2): moderate selectivity | selectivity over GSK-3α (GSK-3α): low selectivity
SMILES: CC(C)C(=O)Nc1n[nH]c2cc(-c3cccnc3)sc12 [Compound 16b, N-(5-(pyridin-3-yl)-1H-thieno[3,2-c]pyrazol-3-yl)isobutyramide]
kinase selectivity over most of the kinases of the panel [1]: good selectivity; also recorded: accepted kinase selectivity | β-catenin/GADPH ratio (β-catenin; 5 μM): 0.54 | β-catenin/GADPH ratio (β-catenin; 10 μM): 0.64 | β-catenin/GADPH ratio (β-catenin; 20 μM): 0.76
